Key:
[1] = molecular target: T1, catalytic domain of human stromelysin (Hsln) (Homo sapiens, UniProt P08254); experiment: Fluorometric MCA-peptide hydrolysis assay, stromelysin (Hsln); assay type: biochemical; conditions: apparent Ki; 10 μM MCA peptide substrate, 37° C., pH 7.5; read-out: Hsln (Ki,app)
T1 construct: The catalytic domain of human stromelysin (Hsln) was obtained by expression and purification of a C-terminally truncated prostromelysin-1; made in house; host or cells: E. coli BL21
Outline: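 APMA-activated E. coli–expressed catalytic domain, with 10 μM MCA-Pro-Leu-Gly-Leu-DPA-Ala-Arg-NH2 at 37 °C. Buffer was pH 7.5 Tricine with NaCl, CaCl2, zinc acetate and 2% final DMSO; fluorescence read at ex 328/em 393 nm over 60 min. Ki,app from steady-state rates fitted to competitive or Morrison tight-binding equations.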

[2] = molecular target: T2, Human matrilysin (Matr) (Homo sapiens, UniProt P09237); experiment: Fluorometric MCA-peptide hydrolysis assay, matrilysin (Matr); assay type: biochemical; conditions: apparent Ki; 10 μM MCA peptide substrate, 37° C., pH 7.5; read-out: Matr (Ki,app)
T2 construct: the catalytic domain was liberated by treatment with 2 mM APMA at 37° C. for 2 hours; ubiquitin (cleaved yes); made in house; host or cells: E. coli
T2 sequence (P09237 95-267): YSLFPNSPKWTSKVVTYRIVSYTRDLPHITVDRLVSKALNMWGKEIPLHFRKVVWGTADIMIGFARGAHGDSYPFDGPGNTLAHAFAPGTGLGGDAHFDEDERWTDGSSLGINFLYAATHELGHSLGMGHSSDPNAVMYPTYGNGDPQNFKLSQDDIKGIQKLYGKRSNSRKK
Outline: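 Catalytic domain of E. coli-expressed human matrilysin assayed at 37° C, pH 7.5 Tricine buffer, 2% DMSO, with 10 μM MCA-Pro-Leu-Gly-Leu-DPA-Ala-Arg-NH2; fluorescence ex 328/em 393 nm over 60 min. Ki,app from steady-state rates fitted to competitive inhibition or Morrison tight-binding equation.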

[3] = molecular target: T3, human progelatinase A (GelA), catalytic and fibronectin-like portion (Homo sapiens, UniProt P08253); experiment: Fluorometric MCA-peptide hydrolysis assay, gelatinase A (GelA); assay type: biochemical; conditions: apparent Ki; 10 μM MCA peptide substrate, 37° C., pH 7.5
T3 construct: The catalytic and fibronectin-like portion of human progelatinase A (GelA) was expressed as a fusion protein with ubiquitin; ubiquitin; made in house; host or cells: E. coli
Outline: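 E. coli-expressed ubiquitin fusion of human proGelA catalytic plus fibronectin-like domains, autoactivated; 10 μM MCA-Pro-Leu-Gly-Leu-DPA-Ala-Arg-NH2, pH 7.5 Tricine/NaCl/CaCl2/Zn buffer, 2% DMSO, 37° C, 60 min. Fluorescence 328/393 nm; steady-state rates fitted to competitive inhibition or Morrison tight-binding equation giving Ki,app (≈Ki since [S]<<Km).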

[4] = molecular target: T4, human collagenase-3 (Coll3) (Homo sapiens, UniProt P45452); experiment: Fluorometric MCA-peptide hydrolysis assay, collagenase-3 (Coll3); assay type: biochemical; conditions: apparent Ki; 10 μM MCA peptide substrate, 37° C., pH 7.5; read-out: Coll3 (Ki,app)
T4 construct: the catalytic domain was liberated by treatment with 2 mM APMA at room temperature overnight; ubiquitin (N, cleaved yes); made in house; host or cells: E. coli

[5] = LogP; assay type: physicochemical
[6] = molecular target: T5, fibroblast collagenase-1 catalytic domain (HFC) (Homo sapiens, UniProt P03956); experiment: Fluorometric MCA-peptide hydrolysis assay, fibroblast collagenase-1 (HFC); assay type: biochemical; conditions: apparent Ki; 10 μM MCA peptide substrate, 37° C., pH 7.5; read-out: HFC (Ki,app)
T5 construct: The catalytic domain of human collagenase-1 was expressed as a fusion protein with ubiquitin in E. coli; ubiquitin (cleaved yes); made in house; host or cells: E. coli
T5 sequence (P03956 100-269 limits assumed): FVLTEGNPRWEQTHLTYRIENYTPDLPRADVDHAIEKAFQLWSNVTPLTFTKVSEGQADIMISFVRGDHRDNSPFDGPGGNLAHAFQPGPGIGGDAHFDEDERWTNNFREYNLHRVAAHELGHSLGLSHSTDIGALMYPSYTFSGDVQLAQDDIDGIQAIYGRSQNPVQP
Experimental: The catalytic domain of human collagenase-1 was expressed as a fusion protein with ubiquitin in E. coli (see Gehring, E. R., J Biol. Chem., 1995, 270, 22507). After purification of the fusion protein, the fibroblast collagenase-1 catalytic domain (HFC) was released either by treatment with purified, active stromelysin-1 (1:50 w/w ratio), which generated nearly 100% N-terminal Phe1, or by autoprocessing the concentrated collagenase-1 fusion and then incubating at 37° C. for 1 hour. Final purification was completed using zinc chelate chromatography.
Assays were performed in assay buffer (50 mM Tricine pH 7.5, 200 mM sodium chloride, 10 mM calcium chloride, 0.5 mM zinc acetate containing 2% dimethyl sulfoxide (DMSO)) once the substrate and inhibitor were diluted into it. Stock solutions of inhibitors were prepared in 100% DMSO. Stock solutions of the substrate were prepared in 100% DMSO at a concentration of 6 mM.
The assay method was based on the hydrolysis of MCA-Pro-Leu-Gly-Leu-DPA-Ala-Arg-NH2 (American Peptide Co.) at 37° C. (see Knight, C. G. et al., FEBS, 1992, 296, 263-266). The fluorescence changes were monitored with a Perkin-Elmer LS-50B fluorimeter using an excitation wavelength of 328 nm and an emission wavelength of 393 nm. The substrate concentration used in the assays was 10 μM. The inhibitor was diluted into the assays from a solution in 100% DMSO, and controls substituted an equal volume of DMSO so that the final DMSO concentration from inhibitor and substrate dilution in all assays was 2%. […] Proper determination of steady-state rates of substrate cleavage required assay lengths of 60 minutes to allow for complete equilibration of the enzyme-inhibitor complex.
The Km for the MCA peptide substrate with the matrix metalloproteinases is quite high and exceeds its solubility under assay conditions. Consequently, the apparent Ki (Ki,app) was determined to describe the strength of inhibition. However, in this case, Ki,app would be essentially equal to Ki since [S]<<Km. For the determination of Ki,app, the concentration of the inhibitor was varied at a constant and low concentration of substrate and the steady-state rates of fluorescence change determined. In most cases absorptive quench due to the presence of ligand was not observed. For slow-binding inhibitors, onset of inhibition curves were collected for at least 45 minutes so that equilibrium was established. Steady-state rates of fluorescence change were obtained by fitting a curve to an equation for a single exponential decay containing a linear phase. The fitted value of the linear phase was taken as the steady-state rate. The steady-state rates were fitted to the Michaelis equation describing competitive inhibition by non-linear methods. Data resulting from tight-binding inhibition was analyzed, and Ki,app determined by fitting the data to the tight-binding equation of Morrison (Biochem. Biophys. Acta, vol. 185, pp. 269-286 (1969)) by non-linear methods.

[7] = Determination of inhibitor concentration in plasma after oral dosing; assay type: in vivo, Sprague Dawley rats; conditions: Sprague-Dawley, rat plasma, dose 50 mg/kg
Experimental: The dosing solution consisted of the inhibitor dissolved in either a molar equivalent of HCl in water (vehicle A), in 60% aq. propylene glycol (vehicle B), or in 2.8 mg/mL sodium bicarbonate in 60% aqueous propylene glycol (vehicle C), yielding a final concentration that ranged from 10-15 mg/ml. Sprague Dawley rats (Hilltop Lab Animals, Scottsdale, Pa.) were dosed as a function of drug weight per body weight, usually 50 mgper kg. Blood was taken from the rats and centrifuged, and the plasma was stored in the freezer. Drug was extracted from a 50 μl plasma aliquot by adding 1 ml of acetonitrile, shaking for 2 minutes, centrifuging for 15 minutes at 4000 rpm, collecting the supernatant, and then evaporating it to dryness under a stream of nitrogen. The samples were reconstituted with 130 μl of mobile phase, shook for 2 minutes, and centrifuged for 15 minutes at 4000 rpm. The supernatant was collected and the samples were analyzed by injecting 100 μl of supernatant onto HPLC.
Quantitation of drug levels was accomplished by generating a standard curve of known drug amounts that were extracted from added plasma. Drug levels were plotted as a function of time and analyzed to provide area under the curve (AUC) and maximum concentration (Cmax) values.

[8] = vehicle A (molar equivalent of HCl in water)
[9] = vehicle B (60% aq. propylene glycol)

T3 sequence (P08253 110-465 limits assumed): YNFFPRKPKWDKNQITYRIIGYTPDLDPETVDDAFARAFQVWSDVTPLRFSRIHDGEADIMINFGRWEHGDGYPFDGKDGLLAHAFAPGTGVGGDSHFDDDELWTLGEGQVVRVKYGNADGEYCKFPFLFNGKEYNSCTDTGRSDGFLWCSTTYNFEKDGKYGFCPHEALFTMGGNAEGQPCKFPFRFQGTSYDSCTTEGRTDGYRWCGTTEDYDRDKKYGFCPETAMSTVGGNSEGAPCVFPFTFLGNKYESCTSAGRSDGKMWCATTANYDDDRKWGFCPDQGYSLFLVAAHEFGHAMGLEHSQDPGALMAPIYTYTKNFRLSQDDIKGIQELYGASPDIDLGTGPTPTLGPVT
T1 sequence (P08254 100-272 limits assumed): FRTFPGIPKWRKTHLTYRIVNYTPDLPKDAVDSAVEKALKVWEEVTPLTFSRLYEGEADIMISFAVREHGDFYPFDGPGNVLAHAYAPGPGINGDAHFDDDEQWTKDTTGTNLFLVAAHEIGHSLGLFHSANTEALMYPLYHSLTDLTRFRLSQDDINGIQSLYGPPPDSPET

Row | Compound | Ki [1] [nM] | Ki [2] [nM] | GelA (Ki,app) [3] [nM] | Ki [4] [nM] | logP [5] | Ki [6] [nM] | melting point [°C] | AUC [7, 8] [ng·h/mL] | Cmax [7, 8] [ng/mL] | AUC [7, 9] [ng·h/mL] | Cmax [7, 9] [ng/mL]
1 | CNC(=O)[C@@H](NC(=O)[C@@H](CC(=O)O)n1ccc(-c2ccc(-c3ccccc3)cc2)c1)C(C)(C)C [Example 1(e), 3(R)-[3-(Biphenyl-4-yl)-1H-pyrrol-1-yl]-N-[2,2-dimethyl-1(S)-(methylcarbamoyl)propyl]succinamic Acid] | 3.1 | 500 | 0.108 | 0.9 | 1.19 | – | – | – | – | – | –
2 | CNC(=O)[C@@H](NC(=O)[C@@H](CC(=O)O)n1ccc(-c2ccccc2)c1)C(C)(C)C [1(b), N-[2,2-Dimethyl-1(S)-(methylcarbamoyl)propyl]-3(R)-(3-phenyl-1H-pyrrol-1-yl)succinamic acid] | 2000 | – | 5.91 | 18.3 | -0.83 | – | – | – | – | – | –
3 | CC(C)(C)[C@H](NC(=O)[C@@H](CC(=O)O)n1ccc(-c2ccc(-c3ccc(C(N)=O)cc3)cc2)c1)C(=O)Nc1ccncc1 [Example 5(f), 3(R)-[3-(4′-Carbamoylbiphenyl-4-yl)-1H-pyrrol-1-yl]-N-[2,2-dimethyl-1(S)-(N-(pyridin-4-yl)carbamoyl)propyl]succinamic Acid] | 0.46 | 2.1 | 0.023 | 0.012 | 2.56 | 818 | 194 to 196 | – | – | – | –
4 | O=C(O)C[C@H](C(=O)N[C@H]1Cc2cn(c3ccccc23)CCOCCNC1=O)n1ccc(-c2ccccc2)c1 [Example 1(c), N-(8-Oxo-4-oxa-1,7-diazatricyclo[9.6.1.0^12,17]octadeca-11(18), 12,14,16-tetraen-9(S)-yl)-3(R)-(3-phenyl-1H-pyrrol-1-yl)succinamic Acid] | 486 | 16900 | 2 | 0.868 | -0.97 | – | – | – | – | – | –
5 | CNC(=O)[C@@H](NC(=O)[C@@H](CC(=O)O)n1ccc(-c2ccc(-c3ccc(C(N)=O)cc3)cc2)c1)C(C)(C)C [Example 5(e), 3(R)-[3-(4′-Carbamoylbiphenyl-4-yl)-1H-pyrrol-1-yl]-N-(2,2-dimethyl-1(S)-(methylcarbamoyl)propyl)succinamic Acid] | 1.7 | 182 | 0.109 | 0.076 | 1.71 | 530 | – | – | – | – | –
6 | CC(C)(C)[C@@H](CO)NC(=O)[C@@H](CC(=O)O)n1ccc(-c2ccc(-c3ccncc3)cc2)c1 [Example 5(a), N-[2,2-Dimethyl-1(S)-(hydroxymethyl)propyl]-3(R)-[3-[4-(pyridin-4-yl)phenyl]-1H-pyrrol-1-yl]succinamic Acid] | 84 | – | 1.6 | 1.8 | 0.11 | – | 192 to 194 | 3520 | 1600 | – | –
7 | CNC(=O)[C@@H](NC(=O)[C@@H](CC(=O)O)n1ccc(-c2ccc(C#N)cc2)c1)C(C)(C)C [Example 1(m), 3 (R)-[3-(4-Cyanophenyl)-1H-pyrrol-1-yl]-N-[2,2-dimethyl-1(S)-(methylcarbamoyl)propyl]succinamic Acid] | 50 | – | 0.41 | 1 | – | 997 | 138 to 140 | – | – | 967 | 590

Source: patent publication US6495699B2, “Metalloproteinase inhibitors, pharmaceutical compositions containing them, and their use” (Agouron Pharmaceuticals Inc., priority 1996, dated 2002)
